Earlier results as cited in patent US11154563B2, “Immunoproteasome inhibitors” (Principia Biopharma Inc., priority 2017, dated 2021).

Legend:
prostate PC-3 cell line = details: in vitro; cited from earlier work
tumor growth = details: cited from earlier work

CCCCCCC(=O)N[C@@H](C)C(=O)N[C@@H](CC(C)C)C(=O)[C@@]1(CO[Si](C)(C)C(C)(C)C)CO1 [UK-101]
apoptosis of PC-3 cells (prostate PC-3 cell line): induced apoptosis | tumor growth in vivo (tumor growth): significantly suppressed tumor growth
